Measurements from patent publication US20070282004A1, “Use of a Cyclopentenone Prostaglandin for Delaying for the Onset and/or Preventing the Continuation of Labour” (Imperial College Innovations Limited, priority 2003, published 2007).
Entries after “also recorded” stand apart in the source; their conditions may differ.

Key:
NF-κB = assay: NF-κB-dependent luciferase reporter (κB.BG.Luc) in myometrial cells; type: cell-based, human; conditions: for IL-1β-induced NF-κB transcriptional activity (κB.BG.Luc reporter): treated 2 h, IL-1β 1 ng/ml 6 h
Procedure: Myometrial cells were transiently transfected with the NFκB-dependent reporter construct κB.BG.Luc, treated with 15dPGJ2 or vehicle for 2 h, ±IL-1β (1 ng/ml) for 6 h. […] Values are normalised for b-gal reporter activity. (NS=nonstimulated).
Myometrial cells were transfected with […] κB.BG.Luc reporter and 200 ng PPAR-γ expression vector and treated with 15d-PGJ2 for 2 h followed by IL-1β (1 ng/ml) for 6 h. Values are normalised for β-galactosidase reporter activity. (NS=nonstimulated).
Myometrial tissue was collected at term from the upper margin of uterine incision at the time of lower segment caesarean section either prior to the onset of labour (L−) or […] (L+). L+ samples were collected by Dr Mark Johnson and Dr S Soorrana at Chelsea & Westminster Hospital. Myometrial tissue was dissected, rinsed in PBS, and digested in serum-free DMEM containing 15 mg/ml collagenase 1A (Sigma), 15 mg/ml collagenase X, and 50 mg/ml bovine serum albumin for 45 min at 37° C. The cell suspension was filtered through a cell strainer, centrifuged at 400 g for 5 min, and the pellet re-suspended and plated out in DMEM, 10% FCS (Helena BioScience), 1% L-glutainine, 1% penicillin-streptomycin. Cells were used between passage numbers 1-4.
pGL3.6κB.BG.luc: a NF-κB-dependent reporter construct with 6 copies of the NF-κB binding site.
Cells were co-transfected with the renilla vector pRL-CMV or β-galactosidase vector pCH110 as internal controls for transfection efficiencies.

IL-1β = assay: Mouse model of preterm labour (LPS): placental IL-1β by ELISA; type: in vivo; conditions: gestation day 16 mice, 6 hours after intrauterine 250 μg LPS + 4 μg 15d-PGJ2, p<0.05
Procedure: Concentrations of IL-1β in placental homogenates collected from gestation day 16 mice 6 hours after intrauterine injection of 250 μg LPS+vehicle or 250 μg LPS+4 μg 15d-PGJ2. * denotes statistically significant difference (t-test (p<0.05)).
(§1) Surgery was performed on timed pregnant MF1 mice at day 16 of gestation. After deep maternal anaesthesia was attained, a minilaparotomy was performed in the lower abdomen. The uterine horns were exposed through the incision and preterm labour was induced by the intrauterine injection of 250 μg lipopolysaccharide (LPS, Sigma) into the gravid horn. This was immediately followed by injection of 4 μg […] (Cayman), or an equal volume of vehicle (methyl acetate), at the same site. The uterus was then returned to the abdomen and the fascia and skin were closed with continuous vicryl sutures.
(§2) Mice were sacrificed 6 hours after injection of LPS±15d-PGJ2. […]
(§3) Homogenate levels of Interlekin-1β (IL-1β) and tumour necrosis factor α (TNFα) were determined in placental lysates by ELISA (R and D systems) according to manufacturers instructions. Total protein concentrations were determined for each homogenate and IL-1β and TNFα levels were expressed as pg/mg total protein. […] Phosphorylated p65 (phospho-p65) was detected by western immunoblotting using a specific antibody (Santa Cruz) and quantified by densitometric analysis.

phospho-p65 = assay: Mouse model of preterm labour (LPS): placental phospho-p65 by western immunoblot; type: in vivo; conditions: gestation day 16 mice, 6 hours after intrauterine 250 μg LPS + 15d-PGJ2, p<0.05
Procedure: Relative concentrations of phospho-p65 in placental homogenates collected from gestation day 16 mice 6 hours after intrauterine injection of 250 μg LPS+vehicle or 250 μg LPS+[…] 15d-PGJ2. * denotes statistically significant difference (t-test (p<0.05)).
as §1, §2, §3

PPARα = conditions: Forman et al., 1995; cited from earlier work

CCCCCC=CC=C1C(=O)C=C[C@@H]1CC=CCCCC(=O)O [15d-PGJ2, 15-deoxy-Δ^12,14prostaglandin J2]
Effect of PPARγ overexpression on 15d-PGJ2 inhibition of NF-κB transcriptional activity (NF-κB; 200 ng PPAR-γ expression vector): does not potentiate
IL-1β-induced NF-κB transcriptional activity (κB.BG.Luc reporter) (NF-κB): reducing reporter activity to basal levels; also recorded: inhibited
IL-1β-induced NF-κB transcriptional activity (κB.BG.Luc reporter) (NF-κB; listed as 15dPGJ2): inhibition
Levels of IL-1β lower in proximal placentae vs LPS+vehicle (IL-1β): approximately 40%
phospho-p65 levels lower in proximal placentae vs LPS+vehicle (phospho-p65): approximately 35%
Transactivation of PPAR-α (PPARα): more weakly than PPAR-γ

CCCCC[C@H](O)/C=C/[C@H]1C=CC(=O)[C@@H]1CCCCCCC(=O)O [PGA1, prostaglandin A1]
IL-1β-induced NF-κB transcriptional activity (κB.BG.Luc reporter) (NF-κB): reduced to basal levels
